# Reference: ChEMBL document CHEMBL1134993, “Synthesis of [difluoro-(3-alkenylphenyl)-methyl]-phosphonic acids on non-crosslinked polystyrene and their evaluation as inhibitors of PTP1B” (Bioorg Med Chem Lett, 2002)
# Activity calls are given as the source filed them. No cut-off for these calls is given here.
# Assays:
# [1] = biological target: T1, Tyrosine-protein phosphatase non-receptor type 1 (Homo sapiens, UniProt P18031); assay: Inhibitory concentration against protein-tyrosine phosphatase 1B (PTB 1B)
# T1 sequence (P18031 whole entry): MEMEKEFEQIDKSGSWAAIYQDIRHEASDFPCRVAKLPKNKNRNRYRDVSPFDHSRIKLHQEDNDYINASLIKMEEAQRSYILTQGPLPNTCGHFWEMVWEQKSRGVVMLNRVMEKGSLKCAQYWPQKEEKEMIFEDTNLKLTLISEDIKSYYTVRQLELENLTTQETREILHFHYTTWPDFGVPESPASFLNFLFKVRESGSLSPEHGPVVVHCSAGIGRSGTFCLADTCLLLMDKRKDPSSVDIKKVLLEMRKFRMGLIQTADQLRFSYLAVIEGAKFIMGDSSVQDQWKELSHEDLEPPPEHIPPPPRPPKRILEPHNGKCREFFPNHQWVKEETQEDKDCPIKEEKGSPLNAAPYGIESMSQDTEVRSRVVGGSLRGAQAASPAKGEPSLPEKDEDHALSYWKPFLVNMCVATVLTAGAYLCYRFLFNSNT
# [2] = biological target: T2, Tyrosine-protein phosphatase non-receptor type 1 (Homo sapiens) (UniProt P18031); assay: Compound was evaluated for its percent Inhibition of protein-tyrosine phosphatase 1B (PTP1B) at the concentration of 50 uM; […]
# T2 sequence (whole entry): T1 sequence (P18031 whole entry)
# [3] = biological target: T2, Tyrosine-protein phosphatase non-receptor type 1 (Homo sapiens); assay: Compound was evaluated for its percent Inhibition of protein-tyrosine phosphatase 1B (PTP1B) at the concentration of 50 uM
# [4] = biological target: T2, Tyrosine-protein phosphatase non-receptor type 1 (Homo sapiens); assay: Compound was evaluated for its percent Inhibition of protein-tyrosine phosphatase 1B (PTP1B) at the concentration of 50 uM; Showed little or no inhibition
# [5] = biological target: T1, Tyrosine-protein phosphatase non-receptor type 1; assay: Binding affinity towards protein-tyrosine phosphatase 1B (PTP1B)
# [6] = biological target: T1, Tyrosine-protein phosphatase non-receptor type 1; assay: Inhibitory concentration against Protein-tyrosine phosphatase 1B (PTP1B)
inhibition [3] [%],inhibition [4],Structure (SMILES),also measured
,,O=P(O)(O)C(F)(F)c1cccc(-c2ccccc2)c1,IC50 [1]: 0.015 mM
,,CC/C=C\c1cccc(C(F)(F)P(=O)(O)O)c1,inhibition [2]: inactive
,,CC(C)=C/C=C\c1cccc(C(F)(F)P(=O)(O)O)c1,inhibition [2]: inactive
71,,O=C(/C=C\c1cccc(C(F)(F)P(=O)(O)O)c1)OCc1ccccc1,
23,,COC(=O)/C=C\c1cccc(C(F)(F)P(=O)(O)O)c1,
,inactive,O=P(O)(O)C(F)(F)c1cccc(/C=C\c2ccc(Br)cc2)c1,
,inactive,O=P(O)(O)C(F)(F)c1cccc(/C=C\c2ccccc2)c1,
,inactive,Cc1ccccc1/C=C\c1cccc(C(F)(F)P(=O)(O)O)c1,
,inactive,Cc1ccc(/C=C\c2cccc(C(F)(F)P(=O)(O)O)c2)cc1,
84,,C=CCOC(=O)/C=C\c1cccc(C(F)(F)P(=O)(O)O)c1,Ki [5]: 8 mM; IC50 [6]: 12.2 mM
,,O=P(O)(O)C(F)(F)c1cccc(/C=C\Cl)c1,inhibition [2]: inactive
45,,N#C/C=C\c1cccc(C(F)(F)P(=O)(O)O)c1,
,,CN(C)C/C=C\c1cccc(C(F)(F)P(=O)(O)O)c1,inhibition [2]: inactive
53,,CCOC(=O)/C=C\c1cccc(C(F)(F)P(=O)(O)O)c1,
60,,O=P(O)(O)C(F)(F)c1cccc(/C=C\c2cccc3ccccc23)c1,
,inactive,O=[N+]([O-])c1ccc(/C=C\c2cccc(C(F)(F)P(=O)(O)O)c2)cc1,
,inactive,CCOc1ccc(/C=C\c2cccc(C(F)(F)P(=O)(O)O)c2)cc1,
,,O=P(O)(O)C(F)(F)c1cccc(/C=C\CCc2ccccc2)c1,inhibition [2]: inactive
70,,O=P(O)(O)C(F)(F)c1cccc(/C=C\C=C\c2ccccc2)c1,
,inactive,O=P(O)(O)C(F)(F)c1cccc(/C=C\c2ccc(Cl)cc2)c1,
,inactive,O=P(O)(O)C(F)(F)c1cccc(/C=C\c2ccc(F)cc2)c1,
